This experiment relates to BDF1 mice, B16 melanoma ip, median survival T/C. In words: NCI In Vivo Anticancer Drug Screen. Data for tumor model B16 Melanoma (intraperitoneal) in B6D2F1 (BDF1) mice. To be noted: endpoint: median survival time, higher = longer survival. A digest of the protocol:
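In this screen, activity was judged from survival or tumor size in treated versus vehicle-treated tumor-bearing mice, reported as T/C.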

The mark [1] stands for this setting: dose: 25.0 mg/kg/injection, schedule: Q01DX009 (ip), vehicle: Klucel (hydroxypropylcellulose) (HPC).
Where [2] appears, read: dose: 50.0 mg/kg/injection, schedule: Q01DX009 (ip), vehicle: Klucel (hydroxypropylcellulose) (HPC).
Where [3] appears, read: dose: 100.0 mg/kg/injection, schedule: Q01DX009 (ip), vehicle: Klucel (hydroxypropylcellulose) (HPC).
Setting [4] is: dose: 200.0 mg/kg/injection, schedule: Q01DX009 (ip), vehicle: Klucel (hydroxypropylcellulose) (HPC).
Where [5] appears, read: dose: 400.0 mg/kg/injection, schedule: Q01DX009 (ip), vehicle: Klucel (hydroxypropylcellulose) (HPC).
The mark [6] stands for this setting: dose: 50.0 mg/kg/injection, schedule: Q01DX009 (ip), vehicle: saline with Tween-80.
Setting [7] is: dose: 100.0 mg/kg/injection, schedule: Q01DX009 (ip), vehicle: saline with Tween-80.
[8] abbreviates: dose: 200.0 mg/kg/injection, schedule: Q01DX009 (ip), vehicle: saline with Tween-80.
Setting [9] is: dose: 25.0 mg/kg/injection, schedule: Q01DX009 (ip), vehicle: saline with Tween-80.

Where “and” joins values, the source holds several entries; their conditions need not be identical. Equal entries are not always repeated. Inconclusive results and toxic doses are left out.

Consider `O=NN(CCCl)C(=O)NC1CCC(=O)NC1=O` (stereo not drawn), for which the T/C runs as follows: (dose: 0.09 mg/kg/injection, schedule: Q01DX009 (ip), vehicle: saline) 114 % of control; (dose: 0.18 mg/kg/injection, schedule: Q01DX009 (ip), vehicle: saline) 111 % of control; (dose: 0.35 mg/kg/injection, schedule: Q01DX009 (ip), vehicle: saline) 118 % of control; (dose: 0.7 mg/kg/injection, schedule: Q01DX009 (ip), vehicle: saline) 114 % of control; (dose: 1.0 mg/kg/injection, schedule: Q01DX009 (ip), vehicle: saline with Tween-80) 119 % of control; (dose: 1.1 mg/kg/injection, schedule: Q01DX009 (ip), vehicle: saline) 152 % of control. Moreover, the T/C was 165 % of control (dose: 1.6 mg/kg/injection, schedule: Q01DX009 (ip), vehicle: saline); 161 % of control (dose: 2.0 mg/kg/injection, schedule: Q01DX009 (ip), vehicle: saline with Tween-80); 193 % of control (dose: 4.0 mg/kg/injection, schedule: Q01DX009 (ip), vehicle: saline with Tween-80); 166 % of control (dose: 7.5 mg/kg/injection, schedule: Q01DX001 (ip), vehicle: saline + alcohol); 123 % of control (dose: 8.0 mg/kg/injection, schedule: Q01DX009 (ip), vehicle: saline with Tween-80); 245 % of control (dose: 15.0 mg/kg/injection, schedule: Q01DX001 (ip), vehicle: saline + alcohol). The T/C (dose: 16.0 mg/kg/injection, schedule: Q01DX009 (ip), vehicle: saline with Tween-80) was 93 % of control.
As to `CC[CH](C)[Hg][c]1cccc2ccccc12` (stereo not drawn), the T/C is 105 % of control under setting [1] and 91 % of control under setting [2].
Take `CCCCCCCC(O)CCCCC` (stereo not drawn): the T/C is, setting by setting: under setting [3], 99 % of control; under setting [4], 103 % of control; under setting [5], 94 % of control.
Take `C=C1C(=O)O[C@@H]2/C=C(\C)CC/C=C(/COC(C)=O)C[C@@H](OC(C)=O)[C@@H]12`: the T/C was 107 % of control (dose: 5.0 mg/kg/injection, schedule: Q01DX009 (ip), vehicle: saline with Tween-80); 99 % of control (dose: 10.0 mg/kg/injection, schedule: Q01DX009 (ip), vehicle: saline with Tween-80); 95 % of control (dose: 18.0 mg/kg/injection, schedule: Q01DX009 (ip), vehicle: acetone); 104 % of control (dose: 20.0 mg/kg/injection, schedule: Q01DX009 (ip), vehicle: saline with Tween-80).
In the case of `NC(=O)NOCC1NC(=O)C(CONC(N)=O)NC1=O` (stereo not drawn), the T/C is 98 % of control (dose: 100.0 mg/kg/injection, schedule: Q01DX009 (ip), vehicle: saline); 94 % of control (dose: 200.0 mg/kg/injection, schedule: Q01DX009 (ip), vehicle: saline); 102 % of control (dose: 200.0 mg/kg/injection, schedule: Q04DX003 (ip), vehicle: saline); 97 % of control (dose: 400.0 mg/kg/injection, schedule: Q01DX009 (ip), vehicle: saline); 94 % of control (dose: 400.0 mg/kg/injection, schedule: Q04DX003 (ip), vehicle: saline).
On to `CCCCC(CC)COC(=O)/C=C/C(=O)OCC(CC)CCCC` (stereo not drawn), for which the T/C is 90 % of control under setting [4] and 87 % of control under setting [5].
Turning to `c1ccc(-c2nc3cnccc3o2)cc1`, the T/C was 91 % of control (dose: 3.13 mg/kg/injection, schedule: Q04DX003 (ip), vehicle: Klucel (hydroxypropylcellulose) (HPC)); 100 % of control (dose: 6.25 mg/kg/injection, schedule: Q04DX003 (ip), vehicle: Klucel (hydroxypropylcellulose) (HPC)); 91 % of control and 97 % of control (dose: 12.5 mg/kg/injection, schedule: Q04DX003 (ip), vehicle: Klucel (hydroxypropylcellulose) (HPC)).
As to `CCC(=O)C(CC)c1ccc(OC)cc1OC` (stereo not drawn), the T/C is 96 % of control under setting [3], 103 % of control under setting [4] and 100 % of control under setting [5].
Regarding `C=CCn1c(=S)[nH]c2ccccc2c1=O`, the T/C runs as follows: under setting [6], 96 % of control; under setting [7], 96 % of control; (dose: 100.0 mg/kg/injection, schedule: Q04DX003 (ip), vehicle: saline with Tween-80) 105 % of control; under setting [8], 93 % of control; (dose: 200.0 mg/kg/injection, schedule: Q04DX003 (ip), vehicle: saline with Tween-80) 94 % of control; (dose: 400.0 mg/kg/injection, schedule: Q04DX003 (ip), vehicle: saline with Tween-80) 92 % of control.
With `CC(=O)OC1CCC2(C)C(CC(=O)C(C)C23CCC2(C=COC2)O3)C1(C)C` (stereo not drawn), the T/C by setting is: (dose: 6.0 mg/kg/injection, schedule: Q01DX009 (ip), vehicle: Klucel (hydroxypropylcellulose) (HPC)) 101 % of control; (dose: 12.0 mg/kg/injection, schedule: Q01DX009 (ip), vehicle: Klucel (hydroxypropylcellulose) (HPC)) 99 % of control; (dose: 24.0 mg/kg/injection, schedule: Q01DX009 (ip), vehicle: Klucel (hydroxypropylcellulose) (HPC)) 95 % of control; (dose: 48.0 mg/kg/injection, schedule: Q01DX009 (ip), vehicle: Klucel (hydroxypropylcellulose) (HPC)) 99 % of control.
Take `COC1/C=C/O[C@@]2(C)Oc3c(C)c(O)c4c(O)c(cc(O)c4c3C2=O)NC(=O)/C(C)=C\C=C\[C@H](C)C(O)[C@@H](C)[C@@H](O)[C@@H](C)[C@H](OC(C)=O)[C@@H]1C` (stereo partly drawn): the T/C is 89 % of control under setting [6], 100 % of control under setting [7] and 95 % of control under setting [8].
With `CCCCCCC(=O)CC(SCC)c1ccccc1Cl` (stereo not drawn), the T/C under setting [9] was 107 % of control; the T/C under setting [6] is 107 % of control; the T/C under setting [7] is 107 % of control; the T/C under setting [8] is 100 % of control; the T/C (dose: 400.0 mg/kg/injection, schedule: Q01DX009 (ip), vehicle: saline with Tween-80) was 91 % of control.
For `[Cu+2].[NH-]C(CC(=O)O)C(=O)O.[NH-]C(CC(=O)O)C(=O)O` (stereo not drawn), the T/C (dose: 4.68 mg/kg/injection, schedule: Q01DX009 (ip), vehicle: saline) was 98 % of control and the T/C (dose: 9.37 mg/kg/injection, schedule: Q01DX009 (ip), vehicle: saline) was 101 % of control.
For `CN(C)NCCC#N`, the T/C by setting is: (dose: 33.0 mg/kg/injection, schedule: Q01DX009 (ip), vehicle: saline) 101 % of control; (dose: 50.0 mg/kg/injection, schedule: Q01DX009 (ip), vehicle: saline) 104 % of control; (dose: 75.0 mg/kg/injection, schedule: Q01DX009 (ip), vehicle: saline) 104 % of control and 206 % of control; (dose: 113.0 mg/kg/injection, schedule: Q01DX009 (ip), vehicle: saline) 100 % of control.
`Nc1ncnc2c1cnn2C1OC(CO)C(O)C1O` (stereo not drawn): the T/C was 113 % of control (dose: 12.5 mg/kg/injection, schedule: Q01DX009 (ip), vehicle: saline with Tween-80) and 109 % of control under setting [9].
On to `COc1ccc2[nH]c3ccc4cc[n+](CCN5CCC(C6CCN(CC[n+]7ccc8ccc9[nH]c%10ccc(OC)cc%10c9c8c7)CC6)CC5)cc4c3c2c1`, for which the T/C is 150 % of control (dose: 12.5 mg/kg/injection, schedule: Q01DX009 (ip), vehicle: Klucel (hydroxypropylcellulose) (HPC)); 194 % of control under setting [1]; 180 % of control under setting [2]; 100 % of control under setting [3].
For the compound `CCc1nc(N)nc(N)c1-c1ccc(Cl)c(Cl)c1`, the T/C (dose: 4.0 mg/kg/injection, schedule: Q01DX009 (ip), vehicle: Klucel (hydroxypropylcellulose) (HPC)) is 95 % of control; the T/C (dose: 8.0 mg/kg/injection, schedule: Q01DX009 (sc), vehicle: Klucel (hydroxypropylcellulose) (HPC)) is 123 % of control; the T/C (dose: 64.0 mg/kg/injection, schedule: Q01DX001 (ip), vehicle: Klucel (hydroxypropylcellulose) (HPC)) is 102 % of control.
